Experimental data reported in US20130192322A1, “Plant Fertilizers Derived from Organic Nitrogen and Phosphorus Sources” (priority 2011, published 2013).

Test system: Tomato (var. Pink Girl)
Experiment: Example 4: effect of enzymatically hydrolyzed protein and phytic acid on tomato growth in greenhouse mix
Type: in vivo
Experimental: Tomato (var. Pink Girl) were grown in a greenhouse mix (⅓ each of components, soil, peat moss and vermiculite). The treatments were arranged in randomized design with 3 replicates for each treatment. Seedlings were harvested and tops weighed forty six days after planting. Treatments included additions of phytic acid and protein hydrolyzate separately and in combination at different concentrations and applied to the soil and as foliar. First application, made two weeks after planting, was both as a foliar and to the soil (50 ml/plant). The second application, made two weeks following the first,) was both to soil (80 ml/plant) and as a foliar.

O=P(O)(O)O[C@H]1[C@H](OP(=O)(O)O)[C@@H](OP(=O)(O)O)[C@H](OP(=O)(O)O)[C@@H](OP(=O)(O)O)[C@H]1OP(=O)(O)O [Phytic Acid, phytic acid]
% of control (0.04% P2O5, Foliar): 109%
Av. Top fresh wt. of plants (0.04% P2O5, Foliar): 27.0 gm
% of control (0.04% P2O5, Soil application): 109%
Av. Top fresh wt. of plants (0.04% P2O5, Soil application): 27.0 gm
% of control (0.1% P2O5, Foliar): 107%
Av. Top fresh wt. of plants (0.1% P2O5, Foliar): 26.3 gm
% of control (0.1% P2O5, Soil application): 128%
Av. Top fresh wt. of plants (0.1% P2O5, Soil application): 31.5 gm
